In patent publication US4707487A, “(4-imidazolyl)piperidines, the preparation thereof and their application in therapy” (Institut National de la Sante et de la Recherche Medicale …, priority 1985, dated 1987):

Experiments:
[1] = Acute toxicity: mortality in mice after a single administration of increasing doses; conditions: mouse, in vivo, after one hour
Description: The determination of mortality in mice is observed folowing a single intravenous administration of increasing doses of compounds to be tested.
The L.D.50 for all the compounds studied is […] 100 mg/kg […]. For example, that for the derivative No. 1 is 100 mg/kg after one hour.

[2] = system: rate of renewal of histamine in the synaptosomal fraction (P2) of rat cerebral cortex; assay: Effects of H3 antagonists on the rate of renewal of cerebral histamine (depletion after synthesis blocking with α-FMH); type: in vivo, rat (male); parameters: Depletion by α-FMH: unit not given beside the values
Description: III. EFFECTS OF H3 A[…] THE RATE OF RENEWAL OF CEREBRAL HISTAMINE
Male rats weighing from 80 to 100 g simultaneously receive intraperitoneally α-fluoromethyl histidine and the compound to be tested, each at a dose of 20 mg/kg. One hour later, the animals are sacrificed and the cerebral cortex rapidly removed and homogenized in 10 volumes of 0.32 M sucrose. The homogenate thereby obtained is subjected to two successive centrifugations, the first at 10^4 g.min and second at 2×10^5 g.min to sediment the fraction enriched in synaptosomes (Whittaker, Michaelson and Kirkland, Biochem. J., 1967, 90, 293-305). After resuspension of this fraction in 10 volumes of 20 mM phosphate (K2 /K) buffer, PH 7.8, and treatment with ultrasound, an aliquot portion is frozen for subsequent assay of histidine decarboxylase activity (Baudry, Martres and Schwartz, J. Neurochem., 21, 1301-1309, 1973), and another portion is heated for 10 minutes at 95° C. and then centrifuged at 10^4 g.min. The endogenous histamine is determined in the supernatant by a radioenzymatic assay, which enables the histamine to be converted to tritiated N^w methylhistamine by means of an enzyme purified from rat kidney, histamine N-methyltransferase, and a tritiated methyl radical donor, S-adenosylmethionine. The N^w -methylhistamine thereby formed is selectively extracted in an alkaline medium into chloroform, before measurement of the tritiated product by liquid scintillation (Taylor and Snyder, J. Pharmacol. Exp. Ther., 137, 619-633, 1971).
In the controls, these rates correspond to 15 ng/g/h, compared with approximately 30 ng/g/h after treatment with an H3 -receptor antagonist (Table 3).

[3] = system: rate of renewal of histamine in the synaptosomal fraction (P2) of rat cerebral cortex; assay: as above; type: in vivo, rat (male); parameters: Depletion by α-FMH: unit not given beside the values; remark: listed apart in the source
[4] = molecular target: T1, H3 self-receptors of rat brain (Rattus norvegicus, UniProt Q9QYN8); assay: cell-based
T1 sequence (Q9QYN8 whole entry): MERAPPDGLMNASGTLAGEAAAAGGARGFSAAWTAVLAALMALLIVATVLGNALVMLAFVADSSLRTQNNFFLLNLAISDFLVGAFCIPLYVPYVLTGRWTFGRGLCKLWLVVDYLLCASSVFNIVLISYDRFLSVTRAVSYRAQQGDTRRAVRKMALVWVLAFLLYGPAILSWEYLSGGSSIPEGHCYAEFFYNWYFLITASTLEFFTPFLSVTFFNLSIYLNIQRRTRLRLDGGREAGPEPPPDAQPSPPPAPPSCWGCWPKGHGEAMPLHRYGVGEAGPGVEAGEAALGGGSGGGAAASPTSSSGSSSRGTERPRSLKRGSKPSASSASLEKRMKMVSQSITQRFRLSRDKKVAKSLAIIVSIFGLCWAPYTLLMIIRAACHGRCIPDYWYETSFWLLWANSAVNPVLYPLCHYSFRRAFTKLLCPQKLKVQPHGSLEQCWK
Description: (§1) The method described by Arrang et al., (Nature 1983, 302: 838-837) is used on sections (0.3 mm thick) of cerebral cortex of male Wistar rats (180-200 g) (IFFA-CREDO, France).

[5] = molecular target: T1, H3 self-receptors of rat brain; assay: Antagonism of histamine stimulation of the H3 receptors controlling the release of (3H)histamine induced by depolarization of sections of rat brain
Description: as §1

[6] = α-FMH 20 mg/kg + test compound 20 mg/kg
[7] = α-FMH 20 mg/kg + test compound 20 mg/kg, * p < 0.01 with respect to α-FMH alone
[8] = α-FMH 20 mg/kg + test compound 20 mg/kg, where marked *** p < 0.05 with respect to α-FMH
[9] = α-FMH 20 mg/kg + test compound 2 mg/kg
[10] = read-out: Apparent dissociation constant (Ki) as antagonist of histamine on the H3 self-receptors of rat brain
[11] = α-FMH alone 20 mg/kg, i.p., 1 h, rat cerebral cortex

S=C(NC1CCCCC1)N1CCC(c2c[nH]cn2)CC1 [Example 1]
LD50 at 1 h [1]: 100 mg/kg
Depletion by α-FMH, change (in brackets) [2, 6]: +74%
Histamine (level in the synaptosomal fraction P2) [2, 7]: 26.4 ± 1.4
Depletion by α-FMH [2, 8]: 25.2 ± 3.3
histamine level in the synaptosomal fraction ([3]; administered alone at a dose of 20 mg/kg): significant fall in the histamine level in the synaptosomal fraction
Depletion by α-FMH ([3]; test compound alone 20 mg/kg, no α-FMH): 12.3 ± 3.7
Histamine (level in the synaptosomal fraction P2) ([3]; test compound alone 20 mg/kg, no α-FMH, ** p < 0.03 with the untreated animals): 39.3 ± 2.1
Depletion by α-FMH [3, 9]: 28.4 ± 4.0
Depletion by α-FMH, change (in brackets) [3, 9]: +96%
Histamine (level in the synaptosomal fraction P2) ([3]; α-FMH 20 mg/kg + test compound 2 mg/kg, * p < 0.01 with respect to α-FMH alone): 23.2 ± 2.7
Ki [4]: 0.005 µM

O=C(NC1CCCCC1)N1CCC(c2cn(C(=O)NC3CCCCC3)cn2)CC1 [Example 2]
Ki [5]: 0.026 µM

O=C(NC1CCCCC1)N1CCC(c2c[nH]cn2)CC1 [Example 3]
Depletion by α-FMH, change (in brackets) [2, 6]: +84%
Histamine (level in the synaptosomal fraction P2) [2, 7]: 24.9 ± 1.2
Depletion by α-FMH [2, 8]: 26.7 ± 3.2
Ki [5]: 0.041 µM

O=C(c1ccc(N2CCC(c3c[nH]cn3)CC2)cc1)C1CC1 [Example 4]
Ki [5]: 0.037 µM

S=C(NC12CC3CC(CC(C3)C1)C2)N1CCC(c2c[nH]cn2)CC1 [Example 7]
Ki [4]: 0.03 µM

O=C(Nc1ccccc1)N1CCC(c2c[nH]cn2)CC1 [Example 9]
Ki [4]: 0.17 µM

O=C(Nc1cccc(F)c1)N1CCC(c2c[nH]cn2)CC1 [Example 10]
Ki [4]: 0.023 µM

Cc1cccc(NC(=O)N2CCC(c3c[nH]cn3)CC2)c1 [Example 11]
Ki [4]: 0.052 µM

Cc1cccc(NC(=O)N2CCC(c3cn(C(=O)Nc4cccc(C)c4)cn3)CC2)c1 [Example 16]
Ki [4]: 0.084 µM

CC(NC(=O)N1CCC(c2cn(C(=O)NC(C)c3ccccc3)cn2)CC1)c1ccccc1 (stereo not shown) [Example 20]
Ki [4]: 0.022 µM

Cc1[nH]cnc1C1CCN(CCCn2c(=O)[nH]c3ccccc32)CC1 [Example 39]
Ki [4]: 0.5 µM

c1ccc(OCCN2CCC(c3c[nH]cn3)CC2)cc1 [Example 40]
Ki [5]: 0.067 µM

CC(NC(=O)N1CCC(c2c[nH]cn2)CC1)c1ccccc1 (stereo not shown) [Example 56]
Ki [4]: 0.01 µM

CC(NC(=N)N1CCC(c2c[nH]cn2)CC1)C1CC1 (stereo not shown) [Example 57]
Ki [5, 10]: 0.012 µM

S=C(NC1CCCCC1)N1CCCC(c2c[nH]cn2)C1 (stereo not shown) [Example 58]
Ki [5, 10]: 0.04 µM

NCCc1c[nH]cn1 [histamine, reference compound]
inhibition at 1 µM ([5]; read-out: inhibition of (3H)histamine release by exogenous histamine): ~60%

N[C@@](CF)(Cc1c[nH]cn1)C(=O)O [α-FMH, α-fluoromethylhistidine, reference compound]
Depletion by α-FMH [2, 11]: 14.5 ± 4.0
Histamine (level in the synaptosomal fraction P2) [2, 11]: 37.1 ± 2.7
